According to paper PMC9822133, “Design, Synthesis and Antiproliferative Evaluation of Bis-Indole Derivatives with a Phenyl Linker: Focus on Autophagy” (Molecules, 2022):

How the values were obtained:
Caco-2 = experiment: MTT screening assay, Caco-2; assay type: cell-based; conditions: Homo sapiens, 72 h incubation
Excerpt: (§1) The ability of newly synthesized indole phytoalexins to suppress cell proliferation was screened in vitro on eight cancer cell lines including human colorectal carcinoma (Caco-2 and HCT116), human cervical cancer (HeLa), human breast adenocarcinoma (MCF-7, MDA-MB-231), human alveolar adenocarcinoma (A549) and human leukemic T cell lymphoma (Jurkat), and two non-cancer cell lines (MCF-10A, Cos-7).
(§2) The cell lines used for this study were Caco-2 (human colorectal adenocarcinoma cell line, American Type Culture Collection, Manassas, VA, USA (ATCC)), HCT116 (human colorectal carcinoma cells European Collection of Authenticated Cell Cultures, Salisbury, UK (ECACC)), HeLa (human cervical tumor cells, ECACC), MCF-7 (human breast tumor cells, ECACC), MDA-MB-231 (human breast tumor cells, ATCC), A549 (human lung carcinoma cells, ATCC), BLM (human melanoma lung metastases, a gift from prof. K. Smetana, Institute of Anatomy, Charles University in Prague), Jurkat (human leukemia cell line, ECACC), Cos-7 (immortalized monkey kidney fibroblasts, ATCC) and MCF-10A (human mammary epithelial cells, ATCC). Caco-2, MCF-7, BLM, Cos-7 and A549 cells were cultured in Dulbecco’s Modified Eagle’s Medium (DMEM) with high glucose and sodium pyruvate (GE Healthcare, Piscataway, NJ, USA); HCT116 lines, HeLa, MDA-MB-231 and Jurkat were cultured in RPMI-1640 medium; and MCF10A cells were cultured in high glucose DMEM/F12 (Dulbecco’s Modified Eagle’s Medium F12). The media were enriched with 10% fetal bovine serum (FBS) and a 1% solution of a mixture of antibiotics and antimycotics 1× HyClone™ (GE Healthcare, Chicago, IL, USA). DMEM/F12 medium was supplemented with epidermal growth factor (EGF) (20 ng/mL final), hydrocortisone (0.5 μg/mL final) and insulin (10 μg/mL final) (Sigma-Aldrich Chemie, Steinheim, Germany). The cells were placed in an incubator at 37 °C with humidified air containing 5% CO2.
(§3) The MTT assay is a colorimetric method used to quantify the metabolic activity of cells. MTT (3-(4,5-di-methylthiazol-2-yl)2,5-diphenyltetrazolium bromide) (Sigma-Aldrich Chemie, Steinheim, Germany) is reduced by oxidoreductases in the cytosol of cells to light-absorbing formazan, the presence of which can be measured spectrophotometrically and determines the half-maximal inhibitory concentration (IC50). A549 cells were seeded in 95-well culture plates at a density of 5 × 10^3 per well. […]
(§4) We also incubated the cells with chloroquine at concentrations of 5–20 µM, which was added 1 h before the addition of the test substance, and cisplatin at concentrations of 3–10 µM. […] After 24 h, the absorbance was measured at a wavelength of 540 nm using an automated Cytation™ 3 Cell Imaging Multi-Mode Reader (Biotek, Winooski, VT, USA). […]

HCT116 = experiment: MTT screening assay, HCT116; assay type: cell-based; conditions: Homo sapiens, HCT-116, 72 h incubation
Excerpt: as §1, §2, §3, §4

HeLa = experiment: MTT screening assay, HeLa; assay type: cell-based; conditions: Homo sapiens, 72 h incubation
Excerpt: as §1, §2, §3, §4

MCF-7 = experiment: MTT screening assay, MCF-7; assay type: cell-based; conditions: Homo sapiens, MCF7, 72 h incubation
Excerpt: as §1, §2, §3, §4

A549 = experiment: MTT screening assay, A549; assay type: cell-based; conditions: Homo sapiens, 72 h incubation
Excerpt: as §1, §2, §3, §4

Jurkat = experiment: MTT screening assay, Jurkat; assay type: cell-based; conditions: Homo sapiens, 72 h incubation
Excerpt: as §1, §2, §3, §4

BLM = experiment: MTT screening assay, BLM; assay type: cell-based; conditions: Homo sapiens, 72 h incubation
MDA-MB-231 = experiment: MTT screening assay, MDA-MB-231; assay type: cell-based; conditions: Homo sapiens, 72 h incubation
Excerpt: as §1, §2, §3, §4

MCF10A = experiment: MTT screening assay, MCF10A non-cancer cells; assay type: cell-based, human; conditions: Homo sapiens, MCF-10A; 72 h incubation, MTT, non-cancer cells
Excerpt: as §1, §2
The MTT assay is a colorimetric method used to quantify the metabolic activity of cells. MTT (3-(4,5-di-methylthiazol-2-yl)2,5-diphenyltetrazolium bromide) (Sigma-Aldrich Chemie, Steinheim, Germany) is reduced by oxidoreductases in the cytosol of cells to light-absorbing formazan, the presence of which can be measured spectrophotometrically and determines the half-maximal inhibitory concentration (IC50). A549 cells were seeded in […] culture plates at a density of 5 × 10^3 per well. After 24 h of cultivation, the tested substance 49 was added in concentrations of 10, 50 and 100 µM.
We also incubated the cells with chloroquine at concentrations of 5–20 µM, which was added 1 h before the addition of the test substance, and cisplatin at concentrations of 3–10 µM. Cisplatin was added 24 h after the addition of 49. After 72 h of incubation, 10 µL of MTT (5 mg/mL) was added to each well. After 4 h, formazan crystals formed in the wells, which were dissolved in 100 uL of 10% SDS (sodium dodecyl sulfate). After 24 h, the absorbance was measured at a wavelength of 540 nm using an automated Cytation™ 3 Cell Imaging Multi-Mode Reader (Biotek, Winooski, VT, USA). These experiments were performed in three independent replicates.

Cos-7 = experiment: MTT screening assay, Cos-7 non-cancer cells; assay type: cell-based, monkey; conditions: Primates, 72 h incubation
Excerpt: as §1, §2, §3, §4

[1] = system: A549 human lung cancer cells; experiment: MTT assay with cis-platin alone or combined with compound 49; assay type: cell-based; conditions: A549, CisPt alone 10.0 μM, 72 h
Excerpt: Furthermore, the depletion of GSH has been documented to potentiate the effect of anticancer drugs. Glutathione plays an important role in cisPt detoxification, so depletion of GSH is believed to potentiate the cisPt-induced DNA damage and increase the chemosensitivity of cancer cells to this anticancer drug. Due to the GSH-depleting effect of compound 49, we performed a set of experiments with cis-platin (CisPt) alone or in combination with compound 49 (Figure 9). […] Simultaneous treatments with CisPt (10 μM) and 20 μM of compound 49 caused a 59% reduction in cell growth.
as §3, with “(IC50).” for “(IC50). A549 cells were seeded in 95-well culture plates at a density of 5 × 10^3 per well.”
as §4

| Structure (SMILES) | IC50 (Caco-2) | IC50 (HCT116) | IC50 (HeLa) | IC50 (MCF-7) | IC50 (A549) | IC50 (Jurkat) | IC50 (BLM) | IC50 (MDA-MB-231) | IC50 (MCF10A) | IC50 (Cos-7) | melting point | reduction of cell growth [1] |
| --- | --- | --- | --- | --- | --- | --- | --- | --- | --- | --- | --- | --- |
| CC(C)(C)OC(=O)n1cc(CNC(=S)Nc2ccc(NC(=S)NCc3cn(C(=O)OC(C)(C)C)c4ccccc34)cc2)c2ccccc21 [Compound 48, N,N′-(1,4-phenylene)bis{N′-[1-(tert-butoxycarbonyl)indol-3-yl]methyl (thiourea)}] | 51.7 ± 4.1 µM | 51.9 ± 4.7 µM | 65.3 ± 5.3 µM | 77 ± 2.1 µM | 73.1 ± 7.3 µM | 38.8 ± 2.9 µM | 77.1 ± 4.3 µM | 46 ± 2.5 µM | 67.3 ± 1.9 µM | 78.3 ± 2.6 µM | 204 to 206 °C |  |
| CO[C@@H]1N(C(=O)OC(C)(C)C)c2ccccc2[C@]12CN=C(Nc1ccc(NC3=NC[C@]4(S3)c3ccccc3N(C(=O)OC(C)(C)C)[C@@H]4OC)cc1)S2 [Compound 52a, N,N′-bis[1-(tert-Butoxycarbonyl)-2-methoxy-spiro{indoline-3,5′-[4′,5′]dihydrothiazol-2′-yl}]benzene-1,4-diamine] | 6.1 ± 2.1 µM | 5.8 ± 0.3 µM | 6.4 ± 0.7 µM | 62.9 ± 3.9 µM | 5.95 ± 0.2 µM | 6.1 ± 0.7 µM | 7.4 ± 2.5 µM | 8.3 ± 3.2 µM | 10.1 ± 6.2 µM | 7.15 ± 0.3 µM |  |  |
| N.N.[Cl][Pt][Cl] [CisPt, cis-platin, reference compound] |  |  |  |  |  |  |  |  |  |  |  | 39% |
| CC(C)(C)OC(=O)n1cc(CN2C(=O)CSC2=Nc2ccc(N=C3SCC(=O)N3Cc3cn(C(=O)OC(C)(C)C)c4ccccc34)cc2)c2ccccc21 [Compound 51a, 2,2′-[1,4-phenylenebis(azanylylidene)]bis{3-[(1-(tert-butoxycarbonyl)-indol-3-yl)methyl]-1,3-thiazolidin-4-one}] | > 100 µM | 97.7 ± 3.2 µM | > 100 µM | > 100 µM | 93.8 ± 1 µM | > 100 µM | > 100 µM | > 100 µM | > 100 µM | > 100 µM | 196 to 198 °C |  |
